The subject of data set [1] is Ratibida columnifera (prairie coneflower). The experiment in a line: Activity vs a panel of plants: Ratibida columnifera. Particulars: 31.25 μM to 4000 μM; imaged day 12. The data set is classed as in vivo. An excerpt:
(§1) Pots (63×63×59 mm) were filled with Seedling Substrate Plus+ soil (Bord na Móna Horticulture Ltd, Newbridge, Ireland) consisting of Irish peat. Soil was pre-wet to saturation before sowing seeds. Seeds of the following species were sown. • Arabidopsis thaliana • Cynodon dactylon (couch grass) • Eragrostis tef (tef) • Lolium rigidum (herbicide resistant ryegrass) • Ratibida columnifera (prairie coneflower) • Raphanus raphanistrum (wild radish) • Solanum lycopersicum (tomato) • Triticum aestivum (wheat)
(§2) The number of seeds depended on germination rate and plant size. Seeds were sown in pots (63×63×59 mm) of Seedling Substrate Plus+ soil (Bord na Móna Horticulture Ltd, Newbridge, Ireland) consisting of Irish peat. Soil was pre-wet before sowing to saturation and watered throughout the experiment to maintain adequate moisture. No fertilizer was added. Seeds were cold-treated 7 days in the dark at 4° C. to synchronize germination and grown in a chamber at 22° C., with 60% relative humidity and a 16 h light/8 h dark photoperiod. […]
(§3) Each compound was tested on seedlings by pipetting 600 μL of 0, 31.25, 62.5, 125, 250, 500, 1000, 2000 or 4000 μmol/L solutions directly onto the plants; these quantities and concentrations are equivalent to ˜10, 20, 40, 78, 156, 312, 625 and 1250 g/ha a.i. […]

The subject of the next data set is Eragrostis tef (tef). The experiment in a line: Activity vs a panel of plants: Eragrostis tef. Particulars: 31.25 μM to 4000 μM; imaged day 12. The data set is classed as in vivo.
Description: as §1, §2, §3

Data set [2] has as its system Cynodon dactylon (couch grass). The experiment in a line: Activity vs a panel of plants: Cynodon dactylon. Type of data set: in vivo. Particulars: 31.25 μM to 4000 μM; imaged day 10.
Description: as §1, §2, §3

Data set [3] has as its system Solanum lycopersicum (tomato). Description: Activity vs a panel of plants: Solanum lycopersicum. As to conditions: 31.25 μM to 4000 μM; imaged day 10. The data set is classed as in vivo.
Description: as §1, §2, §3

Data set [4] concerns Raphanus raphanistrum (wild radish). Description: Activity vs a panel of plants: Raphanus raphanistrum. The data set is classed as in vivo. As to conditions: 31.25 μM to 4000 μM; imaged day 10.
Description: as §1, §2, §3

Data set [5] has as its system Arabidopsis thaliana. Description: Small-scale drift (volatility) assay. Also on record: species or system Arabidopsis thaliana Col-0. Particulars: for drift burn (volatility), FIG. 6: 15 mM and 30 mM, same methodology; for drift behaviour, FIG. 27: 2.5 or 5 mM, images recorded at 17 days; for drift burn (volatility), FIG. 5: 5, 10 or 15 mM in lid in centre of pot, imaged after 2 weeks. As to the method: A small-scale drift assay was established. Pots (63×63×59 mm) were filled with Seedling Substrate Plus+ soil (Bord na Móna Horticulture Ltd, Newbridge, Ireland) consisting of Irish peat. Soil was pre-wet before sowing to saturation and a plastic lid from a 50 mL tube placed in the centre of each pot. Seeds of wild type Col-0 Arabidopsis thaliana were sown around each of the lids. Seeds were cold-treated for 3 days in the dark at 4° C. to synchronize germination and then grown in a chamber at 22° C., with 60% relative humidity and in a 16 h light/8 h dark photoperiod. […] After growth for 2 weeks plants were imaged. (In the case of FIG. 27, images were recorded at 17 days).
A second experiment was performed using the same methodology, but at higher concentrations (15 mM and 30 mM).

Data set [6] relates to Triticum aestivum (wheat). The experiment in a line: Activity vs a panel of plants: Triticum aestivum. Type of data set: in vivo. Particulars: 31.25 μM to 4000 μM; imaged day 12.
Description: as §1, §2, §3

In data set [7] the test system is Lolium rigidum (herbicide resistant ryegrass). Description: Activity vs a panel of plants: Lolium rigidum. Type of data set: in vivo. Particulars: 31.25 μM to 4000 μM; imaged day 12.
Description: as §1, §2, §3

The subject of data set [8] is A. thaliana wild type Col-0 or single-locus DMOc line. Description: Compatibility with the DMOc dicamba tolerance trait. As to conditions: wild type vs DMOc line; dicamba 7-125 μM, 1·HCl 31-500 μM; sprayed at 4 and 7 days; imaged Day 11. Type of data set: in vivo, Arabidopsis thaliana. The source says:
To recreate dicamba tolerance by dicamba monooxygenase in A. thaliana similarly to that made by Behrens et al. (2007, Science 316: 1185-1188) a synthetic gene encoding the oxygenaseDIC from Stenotrophomonas maltophilia strain DI-6 (GenBank accession AY786443) was made to include a 58-residue chloroplast targeting leader used by Anderson and Smith (1986, Biochem. J. 240: 709-715) and incorporated a […] mutation said to provide useful changes in pH and temperature optima (See, for example, […] in International Patent Application WO2007146706A2). A BamHI site immediately preceding the sequence encoding the start Met and a SacI site immediately after the stop codon were used to subclone this synthetic DMOc gene into pMDC43 (Curtis and Grossniklaus 2003 Plant Physiol. 133: 462-469), from which the mGFP6 coding sequence and Gateway recombination cassette were removed by the same restriction enzymes, putting DMOc under control of a double CaM[…] promoter and providing it the nopaline synthase terminator. The plasmid pMDC43-DMOc was transferred from E. coli containing the plasmid to Agrobacterium tumefaciens (strain LBA4404) using a helper strain (E. coli […] pRK2013). Wild type Col-0 Arabidopsis thaliana was transformed by in planta transformation. The first transgenic generation (T1) was selected on MS-agar plates (1% agar, 1×MS salts, pH 5.7, 1% glucose) containing 20 μg/mL hygromycin. […]

Data set [9] concerns Arabidopsis thaliana. The experiment in a line: Activity vs a panel of plants: Arabidopsis thaliana. Type of data set: in vivo. Particulars: 31.25 μM to 4000 μM; imaged day 12.
Description: as §1, §2, §3

The source of these data is US20230365493A1, “COMPOUNDS AND METHODS” (DEMAGTECH PTY LTD, priority 2020, published 2023).

`COc1c(Cl)ccc(Cl)c1C(=O)OCCN(C)C.Cl` [Compound 1. HCl, 2-(dimethylamino)ethyl 3,6-dichloro-2-methoxybenzoate hydrochloride]: in data set [1], the “activity against Ratibida columnifera on an equimolar basis, FIG. 12” value is “comparable activity”. Besides, the “activity against Eragrostis tef on an equimolar basis, FIG. 10” value in the data set on Eragrostis tef (tef) was “comparable activity”. Also, in data set [2], the “activity against Cynodon dactylon on an equimolar basis, FIGS. 8 and 9” value is listed as “comparable activity”. For the same molecule, the “activity against Solanum lycopersicum on an equimolar basis, FIGS. 15 and 16” value in data set [3] is listed as “comparable activity”. For the same molecule, the “activity against Raphanus raphanistrum on an equimolar basis, FIGS. 13 and 14” value in data set [4] is reported as “comparable activity”. For the same molecule, in the data set with Arabidopsis thaliana [5], the “drift burn (volatility), FIG. 6” value is “did not show any drift burn”; the “drift behaviour, FIG. 27” value is listed as “does not drift”; the “drift burn (volatility), FIG. 5” value is recorded as “no drift burn at all was visible”. The “activity against Triticum aestivum on an equimolar basis, FIG. 17” value in data set [6] is on record as “comparable activity”. In data set [7], the “activity against Lolium rigidum on an equimolar basis, FIG. 11” value is recorded as “comparable activity”. For the same molecule, in data set [8], the “compatibility with the dicamba tolerance (DMOc) trait, FIG. 26” value is given as “Compatible with the DMOc Trait”. The “activity against Arabidopsis thaliana on an equimolar basis, FIG. 7” value in the data set on Arabidopsis thaliana [9] is “comparable activity”.
Regarding `COc1c(Cl)ccc(Cl)c1C(=O)O` [dicamba, 3,6-dichloro-2-methoxybenzoic acid, reference compound], the “activity against Ratibida columnifera on an equimolar basis, FIG. 12” value in data set [1] is on record as “comparable activity”. The “activity against Eragrostis tef on an equimolar basis, FIG. 10” value in the data set with Eragrostis tef (tef) was “comparable activity”. In [2], the “activity against Cynodon dactylon on an equimolar basis, FIGS. 8 and 9” value is “comparable activity”. Moreover, the “activity against Solanum lycopersicum on an equimolar basis, FIGS. 15 and 16” value in data set [3] is given as “comparable activity”. Besides, the “activity against Raphanus raphanistrum on an equimolar basis, FIGS. 13 and 14” value in data set [4] is “comparable activity”. For the same molecule, in the data set on Arabidopsis thaliana [5], the “drift burn (volatility), FIG. 6” value is on record as “did”; the “drift behaviour, FIG. 27” value is “drifted”; the “drift burn (volatility), FIG. 5” value is reported as “burn symptoms are apparent”. Also, the “activity against Triticum aestivum on an equimolar basis, FIG. 17” value in [6] is “comparable activity”. Besides, the “activity against Lolium rigidum on an equimolar basis, FIG. 11” value in data set [7] was “comparable activity”. Moreover, in data set [8], the “compatibility with the dicamba tolerance (DMOc) trait, FIG. 26” value is “compatibility”. Besides, in the data set with Arabidopsis thaliana [9], the “activity against Arabidopsis thaliana on an equimolar basis, FIG. 7” value is given as “comparable activity”.
